ChEMBL document CHEMBL2417523, “One-pot microwave assisted synthesis of new 2-alkoxycarbonylmethylene-4-oxo-1,5-benzo-, naphtho-, and pyridodiazepines and assessment of their cytogenetic activity” (Eur J Med Chem, 2013)
Active and inactive are the calls of the source. The rule behind the calls is not given here.

How the values were obtained:
[1] = tested on: Lymphocyte; assay: Cytoprotective activity against human lymphocytes assessed as reduction in sister chromatid exchange frequency after 72 hrs by fluorescence/Geimsa method; type: functional, cell-based
[2] = tested on: Lymphocyte; assay: Cytoprotective activity against human lymphocytes assessed as reduction in sister chromatid exchange frequency at 10 uM after 72 hrs by fluorescence/Geimsa method; type: functional, cell-based
[3] = Cytogenetic activity against human lymphocytes assessed as cytostatic activity measured as proliferative rate index at 10 uM after 72 hrs by fluorescence/Geimsa method; type: cell-based; conditions: lymphocyte

Structure (SMILES)	Activity [1]	Activity [2]	Activity [3]
COC(=O)/C=C1/CC(=O)Nc2cc(C)c(C)cc2N1	Dose-dependent effect		
COC(=O)/C=C1/CC(=O)Nc2cc(Cl)ccc2N1	Dose-dependent effect	Active	Toxic
COC(=O)/C=C1/CC(=O)Nc2ccccc2N1	Dose-dependent effect		
